The values that follow come from patent US10478436B2, “Application of 5-HT6 receptor antagonists for the alleviation of cognitive deficits of down syndrome” (The University of Utah Research Foundation, priority 2011, dated 2019).

Entries after “also recorded” stand apart in the source; their conditions may differ.

For one series, the system named is Ts65Dn mice. The experiment in a line: Exploratory paradigm: ability to recognize a novel object in a novel location (discrimination ratio), Ts65Dn Down syndrome mice. Type of series: in vivo, mouse. Conditions: for cognition (discrimination ratio) compared to treatment with vehicle alone: Ts65Dn mice; for cognition (discrimination ratio) compared to treatment with vehicle alone / cognitive performance (discrimination ratio) compared to no treatment / vehicle alone: 10 mg/kg i.p.; for cognitive performance (discrimination ratio) compared to no treatment / vehicle alone: 9-month-old Ts65Dn mice. As to the method: […] Animals were kept on a 12 hour light/dark cycle and experimentation was conducted during the light portion of the cycle. Animals had unlimited access to food and water. All animals used were housed individually to limit the interference of social interaction on cognitive test performance. Animal care and experimental testing procedures conformed to NIH, IACUC, and AALAC standards and protocols.
(§1) Ts65Dn are compared to their control littermates for the effects of excipients and compounds in altering the performance and rescue of deficits in the Ts65Dn DS mouse model.
The apparatus for these experiments consisted of a 40 cm×40 cm Plexiglas box with clear walls and a dark grey floor. The box was placed on a circular white table 1 m in diameter. Four distinct, approximately 20 cm×20 cm black and white shapes were placed 30 cm away from the midpoint of each side of the box. Objects were made from various washable, non-porous materials (plastic, metal, glass, etc.), 2-7 cm in height and varied in color, pattern and texture. To prevent odor cues, all apparatus and objects were disinfected and deodorized with HDQ after each use.
The experimental paradigms utilized the inherent tendency of rodents to differentially explore novel stimuli over familiar stimuli. Exploration was defined as any investigative behavior where mice have active and direct contact with an object. Such behaviors included head orientation and sniffing within <1.0 cm of the object, pawing, biting, or crawling over the objects. Exploration was recorded with an overhead video camera and the duration of exploration was measured with a stopwatch. The week prior to testing, all animals were handled in daily sessions and given an opportunity to habituate to the clear or red apparatus. Each experimental session presented the animal with new object sets and tests were separated by a minimum 48 hour interval. It should be noted that order effects are not normally observed in exploration tasks. Each test consisted of a Habituation Phase, during which mice display reduced exploration over time as a function of habituation, and a Test Phase on novelty detection that is interpreted to reflect recognition memory.
For each of the 7 compounds 1-7, the compound was administered to Ts65Dn mice via i.p. injection at a concentration of 3.0 mg/kg (compound 1) or 10 mg/kg (compounds 2, 3, 4, 5, 6, and 7) body weight delivered in a vehicle of methyl cellulose+0.2% tween 80 solution, while additional Ts65Dn mice were administered with vehicle alone. Each animal received a volume (ml) of drug in vehicle equal to 1% of its body weight (g) or an equal volume of vehicle alone. Forty minutes after the compound is injected, the Habituation phase begins. Therefore, the Test phase occurs 60 minutes after administration of the drug.
For each experiment the animal was placed in center of the clear acrylic box and presented with two different objects spaced 15 cm apart for 15 minutes of free explorations of the apparatus, stimulus objects, and distal environmental cues (Habituation Phase). After the Habituation Phase, a black container was placed over the mouse for a 5-minute Delay. During this delay, one object was exchanged with a new, unfamiliar object in a novel location (novel object), while the other object is replaced with an identical object in the same location (familiar object). Following the delay the black container was removed, beginning the Test Phase and the mouse is allowed to re-explore for 5 minutes (Test Phase).
The duration of exploration of the Novel and Familiar stimuli during the Test Phase was individually measured with stopwatches, rounding to the 0.5 second. […] A zero score would reflect no preference for either the novel or familiar object. A positive score reflects a preference for exploration of the novel object, and is associated with the animal's level of hippocampal function and memory or cognition. […]

In series [1] the test system is scopolamine-induced memory deficits. Particulars: Mitchell and Neumaier (2008); cited from earlier work.
Series [2] has as its target human recombinant and native 5-HT6 receptors (Homo sapiens, UniProt P50406). Particulars: cited from earlier work.
The target in a further series is rat 5-HT6 receptor (Rattus norvegicus, UniProt P31388). Conditions: cited from earlier work.
Sequence of rat 5-HT6 receptor (P31388 whole entry): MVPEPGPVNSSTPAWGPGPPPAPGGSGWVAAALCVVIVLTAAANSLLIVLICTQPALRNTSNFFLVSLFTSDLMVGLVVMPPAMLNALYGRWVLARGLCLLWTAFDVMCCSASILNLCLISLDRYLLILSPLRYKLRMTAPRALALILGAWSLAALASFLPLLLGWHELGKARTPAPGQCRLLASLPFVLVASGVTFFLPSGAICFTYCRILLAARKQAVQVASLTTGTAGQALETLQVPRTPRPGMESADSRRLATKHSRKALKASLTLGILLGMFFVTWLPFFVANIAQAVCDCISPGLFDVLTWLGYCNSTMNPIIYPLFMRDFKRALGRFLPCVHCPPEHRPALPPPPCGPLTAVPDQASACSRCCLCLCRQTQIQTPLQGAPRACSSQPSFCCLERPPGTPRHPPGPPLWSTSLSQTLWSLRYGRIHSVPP
Another series deals with mouse 5-HT6 receptor (Mus musculus, UniProt Q9R1C8). Particulars: cited from earlier work.
Sequence of mouse 5-HT6 receptor (Q9R1C8 whole entry): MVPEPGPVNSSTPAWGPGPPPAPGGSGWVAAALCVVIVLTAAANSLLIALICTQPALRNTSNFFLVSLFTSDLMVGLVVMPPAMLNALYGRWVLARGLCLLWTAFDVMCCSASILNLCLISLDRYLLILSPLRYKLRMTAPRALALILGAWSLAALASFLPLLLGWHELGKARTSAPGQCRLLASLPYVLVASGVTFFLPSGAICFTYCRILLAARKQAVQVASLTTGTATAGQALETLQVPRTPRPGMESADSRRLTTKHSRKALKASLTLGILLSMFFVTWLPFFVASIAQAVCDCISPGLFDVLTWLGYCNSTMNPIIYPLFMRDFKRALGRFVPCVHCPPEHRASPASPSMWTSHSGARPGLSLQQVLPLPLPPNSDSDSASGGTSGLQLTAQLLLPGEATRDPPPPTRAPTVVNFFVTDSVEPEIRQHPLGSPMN
The next series deals with control mice. Kind of series: Exploratory paradigm: ability to recognize a novel object in a novel location (discrimination ratio), control littermates. The series is classed as in vivo, mouse. Conditions: 3.0 mg/kg i.p. As to the method: Male Ts65Dn/DnJ mice and male littermates were obtained from a commercial supplier (Jackson Laboratory, Bar Harbor, Me.), and tested at approximately 12-32 weeks of age, at a weight of 25-30 grams. Animals were kept on a 12 hour light/dark cycle and experimentation was conducted during the light portion of the cycle. Animals had unlimited access to food and water. All animals used were housed individually to limit the interference of social interaction on cognitive test performance. Animal care and experimental testing procedures conformed to NIH, IACUC, and AALAC standards and protocols.
as §1
The apparatus for these experiments consisted of a 40 cm×40 cm Plexiglas box with clear walls and a dark grey floor. The box was placed on a circular white table 1 m in diameter. […]
The experimental paradigms utilized the inherent tendency of rodents to differentially explore novel stimuli over familiar stimuli. […] Exploration was recorded with an overhead video camera and the duration of exploration was measured with a stopwatch. […]
The duration of exploration of the Novel and Familiar stimuli during the Test Phase was individually measured with stopwatches, rounding to the 0.5 second. […]

The conditions of series [3]: Hirst et al. (2006); cited from earlier work.
Series [4] addresses T1, 5-HT6 receptor (Homo sapiens, UniProt P50406). Conditions: Arnt et al. (2010); cited from earlier work.
A further series has as its system 18 other receptors. Conditions: concentration of 10 μM; cited from earlier work.
Series [5] has as its target T1, 5-HT6 receptor. Particulars: cited from earlier work.
[6] abbreviates: Test phase 60 minutes after administration.

T1 sequence (P50406 whole entry): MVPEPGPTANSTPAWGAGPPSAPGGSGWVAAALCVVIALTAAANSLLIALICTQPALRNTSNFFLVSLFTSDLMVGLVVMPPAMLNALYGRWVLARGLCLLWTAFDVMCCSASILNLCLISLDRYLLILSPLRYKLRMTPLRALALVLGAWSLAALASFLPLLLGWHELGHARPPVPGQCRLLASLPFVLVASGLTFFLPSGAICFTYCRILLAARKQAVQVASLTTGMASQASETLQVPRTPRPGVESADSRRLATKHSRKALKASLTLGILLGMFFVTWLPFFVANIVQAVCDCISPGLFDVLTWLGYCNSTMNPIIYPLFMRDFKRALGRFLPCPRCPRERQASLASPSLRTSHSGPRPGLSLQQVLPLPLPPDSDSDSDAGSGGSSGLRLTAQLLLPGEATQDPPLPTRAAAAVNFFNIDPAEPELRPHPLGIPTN
Sequence of human recombinant and native 5-HT6 receptors (P50406 whole entry): as above

For the molecule `COc1ccc2[nH]c(-c3ccccc3)c(CCN(C)C)c2c1` [compound 2, 2-(5-methoxy-2-phenyl-1H-indol-3-yl)-N,N-dimethylethanamine], the “cognition (discrimination ratio) compared to treatment with vehicle alone” value (shortened to “cognition (discrimination ratio)”) with Ts65Dn mice (setting [6]) is “significantly improves”. Also, the “effect on scopolamine-induced memory deficits” value in series [1] was “reverse”.
`CN1CCC(c2cn(C)c3ccc(OS(=O)(=O)c4c(F)cccc4F)cc23)CC1` [compound 4, 1-methyl-3-(1-methylpiperidin-4-yl)-1H-indol-5-yl 2,6-difluorobenzenesulfonate]: in the series with Ts65Dn mice (setting [6]), the “cognition (discrimination ratio)” value was “trend to increased discrimination ratios”.
Consider `CNc1cc(NS(=O)(=O)c2ccc(N)cc2)nc(NC)n1` [compound 5, 4-amino-N-(2,6-bis(methylamino)pyrimidin-4-yl)benzenesulfonamide], for which the “cognition (discrimination ratio)” value with Ts65Dn mice (Test phase 60 minutes after administration, 10 mg/kg) is “does not restore cognition; also recorded: does not improve cognition; also recorded: lack of response; also recorded: did not alter the cognitive abilities”. Moreover, the “binding to the human 5-HT6 receptor” value in series [2] is on record as “binds the human”. The “recognition of the rat 5-HT6 receptor” value at rat 5-HT6 receptor was “recognizes the rat”. Moreover, at mouse 5-HT6 receptor, the “binding to the mouse 5-HT6 receptor” value is “does not bind; also recorded: does not recognize”.
As to `COc1ccc(S(=O)(=O)Nc2cc(Cl)cc(Cl)c2OC)cc1N1CCNCC1` [compound 1, N-(3,5-dichloro-2-methoxyphenyl)-4-methoxy-3-(piperazin-1-yl)benzenesulfonamide], the “mean discrimination ratio compared to no treatment or treatment with vehicle alone” value in the series on Ts65Dn mice (3 to 4 month-old Ts65Dn mice, 3.0 mg/kg i.p., Test phase 60 minutes after administration) was “significant increase”. Further, in the series with Ts65Dn mice (8-month-old Ts65Dn mice, 3.0 mg/kg i.p.), the “discrimination ratio compared to no treatment or treatment with vehicle alone” value is “significantly increased”. Also, the “persistence of the treatment effect on mean discrimination ratio” value in the series on Ts65Dn mice (8-month-old Ts65Dn mice, tested two weeks after the treatment experiments) is listed as “did not last”. The “mean discrimination ratio, compound+vehicle vs. vehicle alone” value in the series with control mice is on record as “did not respond differently”. Besides, in series [3], the brain penetration result is “brain penetrant” and the oral activity result was “orally active”.
Consider `Fc1ccc2c(CCNCc3cccc(OCC(F)(F)C(F)F)c3)c[nH]c2c1` [compound 6, 2-(6-fluoro-1H-indol-3-yl)-N-(3-(2,2,3,3-tetrafluoropropoxyl)benzyl)ethanamine], for which, in the series with Ts65Dn mice, the “cognitive performance (discrimination ratio) compared to no treatment / vehicle alone” value was “significant increase”. For the same molecule, the “5-HT6 receptor agonist activity” value at 5-HT6 receptor [4] is listed as “no agonist activity”.
`O=S(=O)(c1cccc2ccccc12)n1ccc2ccc(N3CCN4CCCC4C3)cc21` (stereo not shown) [compound 3, 2-(1-(naphthalen-1-ylsulfonyl)-1H-indol-6-yl)octahydropyrrolo[1,2-a]pyrazine]: the “cognition (discrimination ratio)” value in the series with Ts65Dn mice (setting [6]) is “significantly increased”.
`Cc1ccc2c(c1)c1c(n2CCc2ccc(C)nc2)CCN(C)C1` [dimebolin]: the “inhibition of 18 other receptors” value in the series with 18 other receptors was 50%. Further, the “ability to bind as 5-HT6 receptor antagonist” value on 5-HT6 receptor [5] is recorded as “approximately 20 times weaker”.
On to `O=S(=O)(c1ccccc1)c1cnc2c(N3CCNCC3)cccc2c1` [compound 7, 3-(phenylsulfonyl)-8-(piperazin-1-yl)quinoline], for which the “cognitive performance (discrimination ratio) compared to no treatment / vehicle alone” value in the series with Ts65Dn mice was “significantly improves”.
